Results as given in PubChem BioAssay (NCI).
“And” between values parts separate entries of the source, which are not always exact repeats. Equal values may be shown once.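 Five compound concentrations were applied to cells in 96-well plates for 48 hours; endpoints were derived by simple linear interpolation of the resulting dose-response curve. GI50 is the concentration that inhibits growth by half. TGI denotes the concentration required for complete inhibition of growth.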

Key:
Experiment in all cases: NCI-60 cell line screen, 48 h
[1] = system: MDA-N
[2] = system: COLO 205 colon
[3] = system: MOLT-4 leukemia
[4] = system: SK-MEL-2 melanoma
[5] = system: UACC-257 melanoma
[6] = system: IGROV1 ovarian
[7] = system: OVCAR-4 ovarian
[8] = system: HL-60(TB) leukemia
[9] = system: M14 melanoma
[10] = system: DU-145 prostate
[11] = system: DLD-1 colon
[12] = system: ACHN renal
[13] = system: MDA-MB-231 breast
[14] = system: SNB-75 CNS
[15] = system: LXFL 529 NSCLC
[16] = system: SNB-19 CNS
[17] = system: SF-539 CNS
[18] = system: SF-268 CNS
[19] = system: SN12C renal
[20] = system: K-562 leukemia
[21] = system: UACC-62 melanoma
[22] = system: RPMI-8226 leukemia
[23] = system: LOX IMVI melanoma
[24] = system: OVCAR-8 ovarian
[25] = system: SK-OV-3 ovarian
[26] = system: PC-3 prostate
[27] = system: A549 NSCLC
[28] = system: MDA-MB-435
[29] = system: HCC-2998 colon
[30] = system: NCI-H226 lung
[31] = system: HT29 colon
[32] = system: UO-31 renal
[33] = system: SF-295 CNS
[34] = system: 786-0 renal
[35] = system: SR leukemia
[36] = system: MCF7 breast
[37] = system: BT-549 breast
[38] = system: NCI/ADR-RES ovarian
[39] = system: KM12 colon
[40] = system: CAKI-1 renal
[41] = system: TK-10 renal
[42] = system: U251 CNS
[43] = system: SK-MEL-28 melanoma
[44] = system: HCT-15 colon
[45] = system: HCT-116 colon
[46] = system: DMS 273 small cell lung
[47] = system: MALME-3M melanoma
[48] = system: RXF 393 renal
[49] = system: XF 498 CNS
[50] = system: SK-MEL-5 melanoma
[51] = system: EKVX NSCLC
[52] = system: KM20L2 colon
[53] = system: HOP-92 NSCLC

CCCCCCCCCCCCCCCCCCOP(=O)([O-])OC1CC[N+](C)(C)CC1
TGI [1]: 26.5 µM | GI50 [2]: 1.42 µM | TGI [2]: 9.43 µM and 15.8 µM | GI50 [3]: 2.15 µM | TGI [3]: 5.57 µM and 11.3 µM | GI50 [4]: 8.48 µM | TGI [4]: > 10 µM and 30 µM | GI50 [5]: > 10 µM | TGI [5]: > 10 µM and 45.7 µM | GI50 [6]: 1.3 µM | TGI [6]: 4.29 µM and 10.8 µM | TGI [7]: > 10 µM and 23.5 µM | GI50 [8]: > 10 µM | TGI [8]: > 10 µM and 6.98 µM | GI50 [9]: 1.87 µM | TGI [9]: 4.41 µM and 12.7 µM | GI50 [10]: > 10 µM | TGI [10]: > 10 µM and 38.5 µM | TGI [11]: 22.4 µM | GI50 [12]: 6.37 µM | TGI [12]: > 10 µM and 25.8 µM | GI50 [13]: 4.81 µM | TGI [13]: > 10 µM and 20.8 µM | GI50 [14]: > 10 µM | TGI [14]: > 10 µM and 20 µM | TGI [15]: 16.5 µM | GI50 [16]: 5.02 µM | TGI [16]: > 10 µM and 23.2 µM | GI50 [17]: > 10 µM | TGI [17]: > 10 µM and 29.7 µM | GI50 [18]: 4.42 µM | TGI [18]: > 10 µM and 24.6 µM | GI50 [19]: 3.87 µM | TGI [19]: > 10 µM and 15.7 µM | GI50 [20]: 3.63 µM | TGI [20]: > 10 µM and 39 µM | GI50 [21]: 1.17 µM | TGI [21]: > 10 µM and 22.5 µM | GI50 [22]: 1.18 µM | TGI [22]: > 10 µM and 13.8 µM | GI50 [23]: 3.89 µM | TGI [23]: > 10 µM and 22 µM | GI50 [24]: > 10 µM | TGI [24]: > 10 µM and 28.8 µM | TGI [25]: > 10 µM and 19.1 µM | GI50 [26]: 0.707 µM | TGI [26]: 3.46 µM and 3.75 µM | GI50 [27]: 6.98 µM | TGI [27]: > 10 µM and 24.6 µM | GI50 [28]: 5.91 µM | TGI [28]: > 10 µM and 30.3 µM | TGI [29]: 17.3 µM | GI50 [30]: > 10 µM | TGI [30]: > 10 µM and 27.1 µM | GI50 [31]: 3.04 µM | TGI [31]: > 10 µM and 14.4 µM | GI50 [32]: 4.27 µM | TGI [32]: > 10 µM and 21.7 µM | GI50 [33]: 3.63 µM | TGI [33]: > 10 µM and 18.2 µM | GI50 [34]: 2.18 µM | TGI [34]: 5.95 µM and 8.32 µM | GI50 [35]: 0.87 µM | TGI [35]: 4.2 µM and 5.74 µM | GI50 [36]: > 10 µM | TGI [36]: > 10 µM and 34 µM | GI50 [37]: 5.76 µM | TGI [37]: > 10 µM and 27.5 µM | GI50 [38]: > 10 µM | TGI [38]: > 10 µM and 28 µM | GI50 [39]: 1.15 µM | TGI [39]: 2.97 µM and 1.46 µM | GI50 [40]: 2.03 µM | TGI [40]: > 10 µM and 15.6 µM | GI50 [41]: 0.535 µM | TGI [41]: 1.89 µM and 5.34 µM | GI50 [42]: 4.02 µM | TGI [42]: > 10 µM and 26.1 µM | GI50 [43]: > 10 µM | TGI [43]: > 10 µM and 34.4 µM | TGI [44]: 9.86 µM and 8.72 µM | GI50 [45]: 5.24 µM | TGI [45]: > 10 µM and 20.6 µM | TGI [46]: 14.9 µM | GI50 [47]: > 10 µM | TGI [47]: > 10 µM and 26.8 µM | TGI [48]: 5.55 µM and 8.04 µM | TGI [49]: 29.1 µM | TGI [50]: 29.7 µM | GI50 [51]: > 10 µM | TGI [51]: > 10 µM and 26.8 µM | TGI [52]: 6.16 µM | GI50 [53]: 2.1 µM | TGI [53]: 5.32 µM and 9.79 µM

COc1cccc2c1C(CO)N1C(C#N)C3CC(C(=O)O)C(C1C2)N3C (stereo unspecified)
TGI [1]: 0.635 µM and 2.25 µM | GI50 [2]: 0.112 µM | TGI [2]: 2.66 µM and 1.2 µM | GI50 [3]: 0.0934 µM | GI50 [4]: 0.139 µM | TGI [4]: 2.32 µM and 0.305 µM | GI50 [5]: 0.331 µM | TGI [5]: 3.96 µM and 2.11 µM | TGI [6]: 9.67 µM and 4.64 µM | GI50 [7]: 0.705 µM | TGI [7]: 27 µM | GI50 [8]: 0.239 µM | TGI [8]: 4.53 µM and 0.811 µM | GI50 [9]: 0.363 µM | TGI [9]: 6.91 µM and 1.42 µM | GI50 [10]: 0.365 µM | TGI [10]: > 100 µM | TGI [11]: 9.07 µM | GI50 [12]: 0.294 µM | GI50 [13]: 0.271 µM | TGI [13]: 0.933 µM and 0.521 µM | GI50 [14]: 0.298 µM | TGI [14]: 5.42 µM and 1.99 µM | TGI [15]: 6.67 µM | GI50 [16]: 0.212 µM | TGI [16]: > 15.5 µM | GI50 [17]: 0.195 µM | TGI [17]: 3.11 µM and 1.02 µM | GI50 [18]: 0.313 µM | TGI [18]: 8.75 µM and 57.3 µM | GI50 [19]: 0.373 µM | TGI [19]: 8.34 µM and > 17.8 µM | GI50 [20]: 0.275 µM | TGI [20]: > 100 µM | GI50 [21]: 0.192 µM | TGI [21]: 2.23 µM and 0.452 µM | GI50 [22]: 0.0637 µM | TGI [22]: 3.94 µM and 1.54 µM | GI50 [23]: 0.254 µM | GI50 [24]: 0.372 µM | GI50 [25]: 2.6 µM | TGI [25]: 8.34 µM and > 31.1 µM | GI50 [26]: 0.462 µM | TGI [26]: > 100 µM | GI50 [27]: 4.74 µM | GI50 [28]: 0.168 µM | GI50 [29]: 3.14 µM | TGI [29]: 8.21 µM and 2.78 µM | GI50 [30]: 2.47 µM and 0.327 µM | TGI [30]: 5.38 µM and 1.23 µM | TGI [31]: 6.55 µM | GI50 [32]: 0.365 µM | TGI [32]: 4.36 µM and 2.46 µM | GI50 [33]: 0.42 µM | TGI [33]: 27.2 µM | GI50 [34]: 0.236 µM | TGI [34]: 3.8 µM and 0.757 µM | GI50 [35]: 0.0308 µM | TGI [35]: 7.2 µM | TGI [36]: > 44 µM | TGI [37]: 0.739 µM and 1.94 µM | GI50 [38]: 0.194 µM | TGI [38]: 0.549 µM and 1.12 µM | GI50 [39]: 0.679 µM | TGI [39]: 8.3 µM and > 26 µM | GI50 [40]: 0.404 µM | TGI [41]: 9.27 µM | GI50 [42]: 0.0787 µM | GI50 [43]: 0.391 µM | TGI [43]: 3.83 µM and 1.88 µM | GI50 [44]: 0.38 µM | GI50 [45]: 0.337 µM | TGI [45]: 5.59 µM | GI50 [46]: 0.335 µM | TGI [46]: 8.25 µM | GI50 [47]: 0.458 µM | TGI [47]: 4.6 µM and 1.23 µM | GI50 [48]: 0.203 µM | TGI [48]: 1.85 µM and 0.571 µM | GI50 [49]: 1.79 µM | GI50 [50]: 0.383 µM | TGI [50]: 4.07 µM and 0.985 µM | GI50 [51]: 0.734 µM | TGI [51]: 10.6 µM | GI50 [52]: 0.207 µM | GI50 [53]: 0.422 µM | TGI [53]: 7.63 µM and > 18.4 µM
